Test results taken from patent US11186605B2 (KYOWA HAKKO BIO CO., LTD., priority 2016, dated 2021).
Read-outs that look alike come from different tables or passages of the source.

Legend:
[1] = crystal powder, mean of three sites
Description: Here, the “angle of repose” refers to an angle formed by a horizontal plane and a generating line of a cone formed with a powder when the powder is allowed to gently fall onto the horizontal plane through a kind of a funnel.
The angle of repose can be measured using Multi Tester MT-1001T (manufactured by Seishin Enterprise Co., Ltd.) according to the accompanying manual under the following conditions.
[Measurement Conditions for Angle of Repose]
(§1) Apparatus for use: multi-tester MT-1001T type (manufactured by Seishin Enterprise Co., Ltd.)
(§2) Vibration range: 0.7 mm to 0.8 mm
Specific example of method of measuring angle of repose: The crystal is piled on an repose angle table (component number: MT-1028) while dropped via a 1.18 mm sieve vibrated at a range of 0.7 mm to 0.8 mm. The repose angle table is rotated without giving vibration, angles are read at three sites, and an arithmetic mean thereof is determined to be the angle of repose.

[2] = crystal powder, after three impacts, mean of three sites
Description: Here, the “angle of rupture” refers to an angle formed by a horizontal plane and a generating line of a cone which is formed when a certain impact is applied indirectly to a cone formed with a powder when the powder is allowed to gently fall onto the horizontal plane through a kind of a funnel.
The angle of rupture can be measured using Multi Tester MT-1001T (manufactured by Seishin Enterprise Co., Ltd.) according to the accompanying manual by the following method.
A weight attached to the bottom of a repose angle table unit (component number: MT-1028) is slowly lifted under a tapping table and allowed to fall after the measurement of the angle of repose. This operation is repeated three times. In the same manner as the method of measuring the angle of repose, angles are read at three sites, and the arithmetic mean thereof is determined to be the angle of rupture.

[3] = crystal powder, 1.18 mm sieve, 100 mL container, average of three
Description: Here, the “loose specific volume” refers to a value which is obtained by dividing a volume occupied by a powder by a mass when the powder is filled in a container and the mass of the powder is measured.
The loose specific volume can be measured using Multi Tester MT-1001T (manufactured by Seishin Enterprise Co., Ltd.) according to the accompanying manual under the following conditions based on the 17th revision, Pharmacopoeia of Japan.
[Measurement Conditions for Loose Specific Volume]
as §1, §2
Specific example of method of measuring loose specific volume: A 100 mL cylindrical container made of stainless steel is filled while the crystal is dropped via a 1.18 mm sieve vibrated at a range of 0.7 mm to 0.8 mm. Excess powder is carefully rubbed off from the top surface of the container, and the mass of the powder is measured by subtracting the mass of an empty measurement container measured in advance. The measurement is independently performed three times to determine an average value.

[4] = crystal powder, 400 taps at 1 tap/sec, 100 mL container, average of three
Description: Here, the “dense specific volume” refers to a value which is obtained by dividing a volume occupied by a powder by a mass when the powder is filled in a container, a certain impact is applied to the container, and then the mass of the powder is measured.
The dense specific volume can be measured, for example, using Multi Tester MT-1001T (manufactured by Seishin Enterprise Co., Ltd.) according to the accompanying manual under the following conditions based on the 17th revision, Pharmacopoeia of Japan.
[Measurement Conditions for Dense Specific Volume]
as §1, §2
Specific example of method of measuring dense specific volume: A 100 mL cylindrical container made of stainless steel equipped with an auxiliary cylinder is filled while the crystal is dropped via a 1.18 mm sieve vibrated at a range of 0.7 mm to 0.8 mm. […] The measurement is independently performed three times to determine an average value.

| Substance | Angle of repose [1] | Angle of rupture [2] | Loose specific volume [3] | Dense specific volume [4] | also measured |
| --- | --- | --- | --- | --- | --- |
| cytidine diphosphate choline | – | – | – | – | concentration of the cytidine diphosphate choline in filtrate (solubility) (ethanol concentration 50% by volume, 30° C.): 282000 µg/mL; concentration of the cytidine diphosphate choline in filtrate (solubility) (ethanol concentration 50% by volume, 35° C.): 286000 µg/mL; concentration of the cytidine diphosphate choline in filtrate (solubility) (ethanol concentration 50% by volume, 40° C.): 317000 µg/mL; concentration of the cytidine diphosphate choline in filtrate (solubility) (ethanol concentration 66% by volume, 30° C.): 27600 µg/mL; concentration of the cytidine diphosphate choline in filtrate (solubility) (ethanol concentration 66% by volume, 35° C.): 31600 µg/mL; concentration of the cytidine diphosphate choline in filtrate (solubility) (ethanol concentration 66% by volume, 40° C.): 54200 µg/mL; concentration of the cytidine diphosphate choline in filtrate (solubility) (ethanol concentration 71% by volume, 30° C.): 8490 µg/mL; concentration of the cytidine diphosphate choline in filtrate (solubility) (ethanol concentration 71% by volume, 35° C.): 9700 µg/mL; concentration of the cytidine diphosphate choline in filtrate (solubility) (ethanol concentration 71% by volume, 40° C.): 11100 µg/mL; concentration of the cytidine diphosphate choline in filtrate (solubility) (ethanol concentration 75% by volume, 30° C.): 3230 µg/mL; concentration of the cytidine diphosphate choline in filtrate (solubility) (ethanol concentration 75% by volume, 35° C.): 3650 µg/mL; concentration of the cytidine diphosphate choline in filtrate (solubility) (ethanol concentration 75% by volume, 40° C.): 4040 µg/mL; concentration of the cytidine diphosphate choline in filtrate (solubility) (ethanol concentration 78% by volume, 30° C.): 1400 µg/mL; concentration of the cytidine diphosphate choline in filtrate (solubility) (ethanol concentration 78% by volume, 35° C.): 1680 µg/mL; concentration of the cytidine diphosphate choline in filtrate (solubility) (ethanol concentration 78% by volume, 40° C.): 1690 µg/mL; concentration of the cytidine diphosphate choline in filtrate (solubility) (ethanol concentration 80% by volume, 30° C.): 760 µg/mL; concentration of the cytidine diphosphate choline in filtrate (solubility) (ethanol concentration 80% by volume, 35° C.): 840 µg/mL; concentration of the cytidine diphosphate choline in filtrate (solubility) (ethanol concentration 80% by volume, 40° C.): 920 µg/mL |
| cytidine diphosphate choline [Comparative Example 1] | 49.6 degree | 40.1 degree | 2.33 mg/L | 1.49 mg/L | – |
| cytidine diphosphate choline [Comparative Example 3] | 57.4 degree | 50.8 degree | 4.19 mg/L | 2.19 mg/L | – |
| cytidine diphosphate choline [Comparative Example 4] | 48.7 degree | 46.4 degree | 5.74 mg/L | 2.93 mg/L | – |
| cytidine diphosphate choline [Example 1] | 46.9 degree | 39.6 degree | 3.42 mg/L | 2.13 mg/L | – |
| cytidine diphosphate choline [Example 2] | 47.2 degree | 38.7 degree | 2.55 mg/L | 1.82 mg/L | – |
| cytidine diphosphate choline [Example 3] | 52.8 degree | 47.1 degree | 3.58 mg/L | 2.19 mg/L | – |
| cytidine diphosphate choline [Example 4] | 43.4 degree | 41.6 degree | 2.00 mg/L | 1.55 mg/L | – |
| cytidine diphosphate choline [Product of company A] | 56.6 degree | 48.7 degree | 2.81 mg/L | 1.67 mg/L | – |
